What was measured:
Experiment in all cases: KINOMEscan competition binding
Settings in all cases: compound 10.0 µM
MTOR (human) = MTOR (human) (UniProt P42345)
MAPK12 (human) = MAPK12 (human) (UniProt P53778)
SRPK2 (human) = SRPK2 (human) (UniProt P78362)
SRPK1 (human) = SRPK1 (human) (UniProt Q96SB4)
RPS6KA5 KD1 (human) = RPS6KA5 KD1 (human) (UniProt O75582)
[1] = test system: EIF2AK4 KD2 (human), Q9P2K8 [S808G]
MST1R (human) = MST1R (human) (UniProt Q04912)
CSNK1A1L (human) = CSNK1A1L (human) (UniProt Q8N752)
RIOK2 (human) = RIOK2 (human) (UniProt Q9BVS4)
MAPKAPK2 (human) = MAPKAPK2 (human) (UniProt P49137)
MYO3A (human) = MYO3A (human) (UniProt Q8NEV4)
CDK4 CCND1 (human) = CDK4 CCND1 (human) (UniProt P11802+P24385)
EPHA7 (human) = EPHA7 (human) (UniProt Q15375)
PRKCH (human) = PRKCH (human) (UniProt P24723)
TNK1 (human) = TNK1 (human) (UniProt Q13470)
PHKG2 (human) = PHKG2 (human) (UniProt P15735)
[2] = test system: EGFR (human), P00533 [L861Q]
HIPK4 (human) = HIPK4 (human) (UniProt Q8NE63)
VRK2 (human) = VRK2 (human) (UniProt Q86Y07)
STK35 (human) = STK35 (human) (UniProt Q8TDR2)
[3] = test system: FLT3 (human), P36888 [K663Q]
EPHA2 (human) = EPHA2 (human) (UniProt P29317)
CLK4 (human) = CLK4 (human) (UniProt Q9HAZ1)
CDK16 (human) = CDK16 (human) (UniProt Q00536)
[4] = test system: EGFR (human), P00533 [A750P; 747-749 del]
MARK2 (human) = MARK2 (human) (UniProt Q7KZI7)
EPHB4 (human) = EPHB4 (human) (UniProt P54760)
TNNI3K (human) = TNNI3K (human) (UniProt Q59H18)
DAPK2 (human) = DAPK2 (human) (UniProt Q9UIK4)
PAK2 (human) = PAK2 (human) (UniProt Q13177)
TAOK3 (human) = TAOK3 (human) (UniProt Q9H2K8)
MST4 (human) = MST4 (human) (UniProt Q9P289)
INSR (human) = INSR (human) (UniProt P06213)
[5] = test system: EGFR (human), P00533 [P753S; 747-752 del]
MAPK14 (human) = MAPK14 (human) (UniProt Q16539)
AXL (human) = AXL (human) (UniProt P30530)
FGFR4 (human) = FGFR4 (human) (UniProt P22455)
MET (human) = MET (human) (UniProt P08581)
[6] = test system: EGFR (human), P00533 [T790M]
[7] = test system: EGFR (human), P00533 [T790M/L858R]
CDK19 (human) = CDK19 (human) (UniProt Q9BWU1)
MYLK4 (human) = MYLK4 (human) (UniProt Q86YV6)
MYLK4 (human), sequence (Q86YV6 whole entry, looked up): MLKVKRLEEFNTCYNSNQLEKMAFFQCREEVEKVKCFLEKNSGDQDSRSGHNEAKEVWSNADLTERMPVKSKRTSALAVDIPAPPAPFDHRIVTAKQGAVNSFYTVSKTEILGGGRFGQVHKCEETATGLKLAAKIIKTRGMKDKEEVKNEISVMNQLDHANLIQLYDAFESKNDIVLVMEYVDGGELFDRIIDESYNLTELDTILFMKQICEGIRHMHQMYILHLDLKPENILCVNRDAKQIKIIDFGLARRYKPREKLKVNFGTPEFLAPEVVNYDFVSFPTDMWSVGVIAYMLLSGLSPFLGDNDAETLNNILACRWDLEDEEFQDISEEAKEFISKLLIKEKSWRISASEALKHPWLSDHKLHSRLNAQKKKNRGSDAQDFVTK

PHKG2 (human), sequence (P15735 whole entry, looked up): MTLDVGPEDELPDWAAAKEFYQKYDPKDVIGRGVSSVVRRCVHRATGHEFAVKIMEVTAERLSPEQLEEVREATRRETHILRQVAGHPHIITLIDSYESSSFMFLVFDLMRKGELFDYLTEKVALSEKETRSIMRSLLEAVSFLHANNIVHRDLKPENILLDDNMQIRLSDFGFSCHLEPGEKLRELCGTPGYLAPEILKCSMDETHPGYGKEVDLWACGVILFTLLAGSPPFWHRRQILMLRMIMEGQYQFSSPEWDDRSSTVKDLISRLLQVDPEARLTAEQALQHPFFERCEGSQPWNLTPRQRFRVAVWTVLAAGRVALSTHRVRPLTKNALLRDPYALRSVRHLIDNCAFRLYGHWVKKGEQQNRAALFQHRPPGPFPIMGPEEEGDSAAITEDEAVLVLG
VRK2 (human), sequence (Q86Y07 whole entry, looked up): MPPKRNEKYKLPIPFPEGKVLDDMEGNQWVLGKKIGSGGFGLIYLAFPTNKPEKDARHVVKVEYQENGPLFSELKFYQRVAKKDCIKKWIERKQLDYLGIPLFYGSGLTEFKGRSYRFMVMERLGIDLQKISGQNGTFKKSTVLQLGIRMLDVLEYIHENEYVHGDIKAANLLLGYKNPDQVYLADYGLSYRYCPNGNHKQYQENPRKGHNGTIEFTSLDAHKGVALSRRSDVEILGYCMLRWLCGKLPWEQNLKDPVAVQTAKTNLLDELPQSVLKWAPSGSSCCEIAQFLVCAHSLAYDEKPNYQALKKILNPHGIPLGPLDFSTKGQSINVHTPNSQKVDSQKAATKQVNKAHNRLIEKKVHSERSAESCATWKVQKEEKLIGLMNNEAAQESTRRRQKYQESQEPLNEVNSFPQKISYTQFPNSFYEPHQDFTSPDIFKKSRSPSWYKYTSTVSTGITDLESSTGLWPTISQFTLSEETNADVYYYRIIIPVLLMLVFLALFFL
HIPK4 (human), sequence (Q8NE63 whole entry, looked up): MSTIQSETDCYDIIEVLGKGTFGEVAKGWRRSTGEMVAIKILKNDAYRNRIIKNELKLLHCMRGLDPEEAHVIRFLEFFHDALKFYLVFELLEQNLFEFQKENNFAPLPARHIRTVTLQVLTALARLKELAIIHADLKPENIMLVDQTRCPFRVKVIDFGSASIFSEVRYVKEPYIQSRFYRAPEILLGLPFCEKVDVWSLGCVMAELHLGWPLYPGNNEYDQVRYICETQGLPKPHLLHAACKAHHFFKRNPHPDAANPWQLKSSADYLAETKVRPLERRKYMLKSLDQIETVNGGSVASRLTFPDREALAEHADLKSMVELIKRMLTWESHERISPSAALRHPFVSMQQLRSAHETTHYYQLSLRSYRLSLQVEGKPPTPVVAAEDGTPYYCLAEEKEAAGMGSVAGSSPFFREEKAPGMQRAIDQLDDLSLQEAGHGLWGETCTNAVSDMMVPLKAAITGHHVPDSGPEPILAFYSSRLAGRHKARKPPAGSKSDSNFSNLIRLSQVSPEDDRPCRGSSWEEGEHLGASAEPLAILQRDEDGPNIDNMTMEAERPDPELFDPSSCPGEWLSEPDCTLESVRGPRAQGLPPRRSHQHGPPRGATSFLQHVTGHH
MAPKAPK2 (human), sequence (P49137 whole entry, looked up): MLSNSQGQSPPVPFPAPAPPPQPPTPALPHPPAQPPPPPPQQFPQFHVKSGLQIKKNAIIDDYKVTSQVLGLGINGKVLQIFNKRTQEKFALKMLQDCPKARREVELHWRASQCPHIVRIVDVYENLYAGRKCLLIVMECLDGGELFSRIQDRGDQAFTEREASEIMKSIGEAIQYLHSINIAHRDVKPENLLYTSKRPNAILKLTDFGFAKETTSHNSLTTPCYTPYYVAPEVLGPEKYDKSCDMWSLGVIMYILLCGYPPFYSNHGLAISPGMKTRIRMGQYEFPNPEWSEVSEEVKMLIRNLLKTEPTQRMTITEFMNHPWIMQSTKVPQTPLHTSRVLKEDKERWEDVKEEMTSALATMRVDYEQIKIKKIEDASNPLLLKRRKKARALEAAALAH
RIOK2 (human), sequence (Q9BVS4 whole entry, looked up): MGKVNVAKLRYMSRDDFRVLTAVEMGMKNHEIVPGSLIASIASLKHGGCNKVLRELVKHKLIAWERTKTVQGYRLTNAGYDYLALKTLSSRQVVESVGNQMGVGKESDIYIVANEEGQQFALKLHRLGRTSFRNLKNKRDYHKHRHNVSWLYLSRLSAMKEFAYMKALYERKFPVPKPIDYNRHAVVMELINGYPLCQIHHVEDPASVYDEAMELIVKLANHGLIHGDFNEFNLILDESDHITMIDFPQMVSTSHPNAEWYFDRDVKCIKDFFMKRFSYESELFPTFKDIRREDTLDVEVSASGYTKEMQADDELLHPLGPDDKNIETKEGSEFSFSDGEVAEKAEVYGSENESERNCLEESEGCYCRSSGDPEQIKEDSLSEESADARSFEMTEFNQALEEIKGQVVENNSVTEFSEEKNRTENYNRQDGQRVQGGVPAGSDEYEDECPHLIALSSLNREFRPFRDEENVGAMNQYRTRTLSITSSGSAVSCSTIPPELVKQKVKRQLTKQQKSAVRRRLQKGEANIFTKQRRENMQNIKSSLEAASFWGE
STK35 (human), sequence (Q8TDR2 whole entry, looked up): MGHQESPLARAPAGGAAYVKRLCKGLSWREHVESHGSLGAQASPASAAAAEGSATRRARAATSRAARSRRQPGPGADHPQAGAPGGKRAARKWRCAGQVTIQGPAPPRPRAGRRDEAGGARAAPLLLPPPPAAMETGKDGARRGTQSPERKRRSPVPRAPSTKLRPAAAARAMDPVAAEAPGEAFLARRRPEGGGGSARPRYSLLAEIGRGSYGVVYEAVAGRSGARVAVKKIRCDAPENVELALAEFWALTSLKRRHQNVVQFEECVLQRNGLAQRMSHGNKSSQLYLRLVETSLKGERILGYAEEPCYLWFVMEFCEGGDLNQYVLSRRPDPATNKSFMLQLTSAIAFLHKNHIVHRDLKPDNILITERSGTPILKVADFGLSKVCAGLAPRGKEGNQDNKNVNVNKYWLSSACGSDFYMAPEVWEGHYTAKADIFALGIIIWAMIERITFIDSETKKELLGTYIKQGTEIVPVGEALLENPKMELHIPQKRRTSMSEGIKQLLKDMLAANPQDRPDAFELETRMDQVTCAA
FGFR4 (human), sequence (P22455 whole entry, looked up): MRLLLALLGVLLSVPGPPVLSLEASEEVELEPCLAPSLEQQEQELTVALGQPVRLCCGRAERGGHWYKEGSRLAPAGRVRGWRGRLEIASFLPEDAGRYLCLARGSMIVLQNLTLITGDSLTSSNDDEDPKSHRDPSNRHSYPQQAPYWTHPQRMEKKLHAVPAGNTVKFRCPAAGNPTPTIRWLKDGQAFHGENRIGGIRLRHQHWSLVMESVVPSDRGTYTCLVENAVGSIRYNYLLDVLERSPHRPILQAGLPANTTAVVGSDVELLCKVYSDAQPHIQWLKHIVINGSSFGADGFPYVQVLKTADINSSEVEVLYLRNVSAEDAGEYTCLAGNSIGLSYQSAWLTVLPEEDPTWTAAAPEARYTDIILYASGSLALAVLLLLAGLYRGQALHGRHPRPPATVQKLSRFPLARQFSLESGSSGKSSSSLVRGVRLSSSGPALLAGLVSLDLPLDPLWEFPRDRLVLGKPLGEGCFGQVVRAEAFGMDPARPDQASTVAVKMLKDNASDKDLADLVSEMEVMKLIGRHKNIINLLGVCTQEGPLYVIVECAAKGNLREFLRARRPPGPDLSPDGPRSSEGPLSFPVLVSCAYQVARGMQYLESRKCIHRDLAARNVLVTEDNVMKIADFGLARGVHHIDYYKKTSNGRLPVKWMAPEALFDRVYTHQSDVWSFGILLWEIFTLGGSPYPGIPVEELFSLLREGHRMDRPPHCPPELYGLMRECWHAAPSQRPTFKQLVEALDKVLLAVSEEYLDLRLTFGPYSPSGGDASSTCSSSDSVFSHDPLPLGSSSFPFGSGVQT
TNK1 (human), sequence (Q13470 whole entry, looked up): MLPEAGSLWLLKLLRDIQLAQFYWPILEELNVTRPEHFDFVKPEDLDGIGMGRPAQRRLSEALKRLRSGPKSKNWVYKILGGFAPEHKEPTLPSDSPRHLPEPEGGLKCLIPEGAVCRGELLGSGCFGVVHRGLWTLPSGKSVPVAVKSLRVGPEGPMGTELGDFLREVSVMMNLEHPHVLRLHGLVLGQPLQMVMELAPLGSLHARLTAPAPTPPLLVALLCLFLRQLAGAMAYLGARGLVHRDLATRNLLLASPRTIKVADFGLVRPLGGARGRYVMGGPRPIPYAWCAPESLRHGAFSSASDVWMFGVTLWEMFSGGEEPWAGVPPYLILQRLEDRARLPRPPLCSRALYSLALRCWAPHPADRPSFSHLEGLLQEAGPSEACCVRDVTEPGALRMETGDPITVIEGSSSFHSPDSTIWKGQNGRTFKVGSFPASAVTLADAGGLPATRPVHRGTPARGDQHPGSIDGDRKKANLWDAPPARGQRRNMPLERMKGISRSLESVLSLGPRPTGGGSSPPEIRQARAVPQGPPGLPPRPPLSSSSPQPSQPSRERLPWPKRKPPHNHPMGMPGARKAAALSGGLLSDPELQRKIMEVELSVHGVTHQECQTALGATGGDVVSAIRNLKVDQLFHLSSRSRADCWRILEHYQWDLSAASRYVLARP

`Cc1ccc(NC(=O)c2ccc(NC(=O)/C=C/CN(C)C)cc2)cc1Nc1nccc(-c2cccnc2)n1` was tested. Which kinase still bound, per cent of control (MTOR (human)) did it give?
Its kinase still bound, per cent of control is 100%.

And the kinase still bound, per cent of control (MAPK12 (human))?
The kinase still bound, per cent of control was 94%.

What about the kinase still bound, per cent of control (SRPK2 (human)) of the same molecule?
The kinase still bound, per cent of control was 100%.

And the kinase still bound, per cent of control (SRPK1 (human))?
Its kinase still bound, per cent of control is 74%.

And the kinase still bound, per cent of control (RPS6KA5 KD1 (human))?
The kinase still bound, per cent of control was 90%.

What about the kinase still bound, per cent of control [1] of the same molecule?
Its kinase still bound, per cent of control is 100%.

What about the kinase still bound, per cent of control (MST1R (human)) of the same molecule?
Its kinase still bound, per cent of control is 100%.

What about the kinase still bound, per cent of control (CSNK1A1L (human)) of the same molecule?
Its kinase still bound, per cent of control is 100%.

What about the kinase still bound, per cent of control (RIOK2 (human)) of the same molecule?
The kinase still bound, per cent of control was 3.2%.

What about the kinase still bound, per cent of control (MAPKAPK2 (human)) of the same molecule?
Its kinase still bound, per cent of control is 100%.

What about the kinase still bound, per cent of control (MYO3A (human)) of the same molecule?
The kinase still bound, per cent of control was 100%.

And the kinase still bound, per cent of control (CDK4 CCND1 (human))?
The kinase still bound, per cent of control was 100%.

And the kinase still bound, per cent of control (EPHA7 (human))?
Its kinase still bound, per cent of control is 99%.

What about the kinase still bound, per cent of control (PRKCH (human)) of the same molecule?
The kinase still bound, per cent of control was 87%.

What about the kinase still bound, per cent of control (TNK1 (human)) of the same molecule?
Its kinase still bound, per cent of control is 8.7%.

And the kinase still bound, per cent of control (PHKG2 (human))?
Its kinase still bound, per cent of control is 86%.

And the kinase still bound, per cent of control [2]?
Its kinase still bound, per cent of control is 45%.

And the kinase still bound, per cent of control (HIPK4 (human))?
Its kinase still bound, per cent of control is 18%.

What about the kinase still bound, per cent of control (VRK2 (human)) of the same molecule?
The kinase still bound, per cent of control was 85%.

And the kinase still bound, per cent of control (STK35 (human))?
Its kinase still bound, per cent of control is 82%.

And the kinase still bound, per cent of control [3]?
The kinase still bound, per cent of control was 84%.

And the kinase still bound, per cent of control (EPHA2 (human))?
Its kinase still bound, per cent of control is 90%.

What about the kinase still bound, per cent of control (CLK4 (human)) of the same molecule?
The kinase still bound, per cent of control was 6.2%.

What about the kinase still bound, per cent of control (CDK16 (human)) of the same molecule?
Its kinase still bound, per cent of control is 100%.

And the kinase still bound, per cent of control [4]?
Its kinase still bound, per cent of control is 59%.

And the kinase still bound, per cent of control (MARK2 (human))?
The kinase still bound, per cent of control was 78%.

And the kinase still bound, per cent of control (EPHB4 (human))?
Its kinase still bound, per cent of control is 100%.

And the kinase still bound, per cent of control (TNNI3K (human))?
Its kinase still bound, per cent of control is 100%.

What about the kinase still bound, per cent of control (DAPK2 (human)) of the same molecule?
The kinase still bound, per cent of control was 82%.

What about the kinase still bound, per cent of control (PAK2 (human)) of the same molecule?
The kinase still bound, per cent of control was 80%.

And the kinase still bound, per cent of control (TAOK3 (human))?
The kinase still bound, per cent of control was 19%.

And the kinase still bound, per cent of control (MST4 (human))?
The kinase still bound, per cent of control was 53%.

What about the kinase still bound, per cent of control (INSR (human)) of the same molecule?
Its kinase still bound, per cent of control is 93%.

What about the kinase still bound, per cent of control [5] of the same molecule?
Its kinase still bound, per cent of control is 56%.

And the kinase still bound, per cent of control (MAPK14 (human))?
The kinase still bound, per cent of control was 66%.

And the kinase still bound, per cent of control (AXL (human))?
The kinase still bound, per cent of control was 90%.

What about the kinase still bound, per cent of control (FGFR4 (human)) of the same molecule?
The kinase still bound, per cent of control was 100%.

What about the kinase still bound, per cent of control (MET (human)) of the same molecule?
Its kinase still bound, per cent of control is 100%.

What about the kinase still bound, per cent of control [6] of the same molecule?
The kinase still bound, per cent of control was 92%.

What about the kinase still bound, per cent of control [7] of the same molecule?
Its kinase still bound, per cent of control is 100%.

What about the kinase still bound, per cent of control (CDK19 (human)) of the same molecule?
The kinase still bound, per cent of control was 32%.

And the kinase still bound, per cent of control (MYLK4 (human))?
Its kinase still bound, per cent of control is 55%.
